One assay relates to mouse 3T3-L1 adipocytes. In words: Adipocyte triglyceride synthesis assay. The format is cell-based. Conditions: inhibition of triglyceride synthesis, 14C acetate, 4 hours, geometric mean±standard error. As to the method:
Adipocyte Triglyceride Synthesis Assay: This assay measures the ability of compounds to inhibit triglyceride synthesis in intact mouse 3T3-L1 adipocytes. Undifferentiated 3T3-L1 cells are cultured in 96 well plates at a density of 25,000 cells per well using standard tissue culture conditions. After two days in culture, the cells are differentiated to adipocytes by placing them in media supplemented with 0.5 mM 1-methyl-3-isobutylxanthine (IBMX), 10 μg/mL insulin and 1 μM dexamethasone. After five days in culture, cells are grown in media supplemented only with 10 μg/mL insulin. Assays are performed after cells have been in culture 12 days. To begin the assay, culture media is removed from the cells and replaced with 50 μl OptiMEM® media containing 0.375 μCi/well ^14C acetate. Cells are then incubated at 37° C. in 7.5% CO2 for 4 hours. At the end of this incubation, media is removed, cells are washed once with Hank's balanced salts, and 25 μl of 0.7% Triton® X-100 is added to each well and allowed to extract the cells for 5 minutes. At the end of this period, 75 μl of a solution containing 58.8% isopropanol, 14.7% n-heptane, 11.5% water, 12.5% ethanol, and 2.5% 1N sodium hydroxide is added to each well and plates are shaken on an orbital shaker for 2 minutes. 100 μl of heptane is then added and plates are shaken for another 2 minutes. […]

In the next assay the target is T1, recombinant human DGAT-1 (Homo sapiens, UniProt O75907).
T1 construct: made in house; host or cells: sf9 insect cells (recombinant baculovirus); crude cell homogenate used
T1 sequence (O75907 1-488): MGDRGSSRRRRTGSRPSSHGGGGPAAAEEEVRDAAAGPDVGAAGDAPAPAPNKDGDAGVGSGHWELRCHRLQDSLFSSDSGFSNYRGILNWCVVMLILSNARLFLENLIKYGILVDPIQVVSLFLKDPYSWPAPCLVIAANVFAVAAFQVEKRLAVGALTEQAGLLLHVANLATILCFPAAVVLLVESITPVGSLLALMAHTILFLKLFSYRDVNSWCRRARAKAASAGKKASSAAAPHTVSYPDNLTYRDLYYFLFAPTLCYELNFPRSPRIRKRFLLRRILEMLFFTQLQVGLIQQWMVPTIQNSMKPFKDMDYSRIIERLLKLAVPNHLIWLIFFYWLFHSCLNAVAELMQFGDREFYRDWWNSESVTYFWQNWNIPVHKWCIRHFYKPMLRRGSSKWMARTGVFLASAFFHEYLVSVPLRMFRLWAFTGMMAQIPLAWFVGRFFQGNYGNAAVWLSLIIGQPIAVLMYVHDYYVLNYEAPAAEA
In words: DGAT-1 enzyme assay. The format is biochemical. To be noted: recombinant human DGAT-1 expressed in sf9 insect cells; geometric mean±standard error. Here is the method:
DGAT-1 enzyme assay Inhibitors of DGAT-1 are identified with an in vitro enzymatic assay which uses recombinant human DGAT-1 expressed in sf9 insect cells as an enzyme source. DGAT-1 enzyme is produced by infecting cells with recombinant baculovirus containing a DGAT-1 expression vector. After 48 hr infection cells are harvested by centrifugation, resuspended in cold 20 mM NaCl, and disrupted with a Dounce homogenizer. Fifteen milliliters of 20 mM NaCl are added to a cell pellet for each liter of infected cell suspension. DNA in the homogenate is sheared by pulling the cell extract through a 25 gauge needle. DGAT-1 activity in the baculovirus infected cell homogenate is compared to homogenate from uninfected cells to assess background enzymatic activity associated with sf9 cells.
Assays are performed in 96 well plates using a modification of the assay described by Coleman (Methods in Enzymology 209. pp 98-102 (1992)). Briefly, compounds are tested in a 1:3 serial dilution scheme from 100 μM to 1.7 nM final concentration. The enzyme reaction mixture contains substrates 250 μM 1,2-sn-diacylglycerol (Avanti Polar Lipids), 5 μM ^14C oleoyl CoA, and 45 μM oleoyl CoA in an aqueous buffer containing 150 mM Hepes buffer pH7.4, 0.7% vol/vol Triton® X-100 and Complete™ protease inhibitors. […] One hundred microliters of scintillation cocktail is then added and, after 8 hr, plates are counted. […]

This is an account of results in US8299061B2, “Inhibitors of diacylglycerol acyltransferase” (Eli Lilly and Company, priority 2009, dated 2012).

Structures are written as SMILES.

Take `CCOc1ccc(C(=O)NC2(C(=O)N[C@@H]3CCc4ccccc4-n4ccnc43)CC2)cc1` [Example 1, N-[1-[[(4R)-5,6-dihydro-4H-imidazo[1,2-a][1]benzazepin-4-yl]carbamoyl]cyclopropyl]-4-ethoxy-benzamide]: in the assay with mouse 3T3-L1 adipocytes, it took 175 nM to reach a half-maximal effect (EC50). Besides, the IC50 (usually the concentration that gives 50% inhibition) at recombinant human DGAT-1 was determined as 134 ± 8 nM.

As to `O=C(NC1(C(=O)N[C@@H]2CCc3ccccc3-n3ccnc32)CC1)c1ccc(Cl)cc1` [Example 2, 4-Chloro-N-[1-[[(4R)-5,6-dihydro-4H-imidazo[1,2-a][1]benzazepin-4-yl]carbamoyl]cyclopropyl]benzamide], in the assay with mouse 3T3-L1 adipocytes, the EC50 (usually the concentration that produces a half-maximal response) worked out at 213 nM. Moreover, on recombinant human DGAT-1, the IC50 stood at 89 ± 0.98 nM.
